# Values of other authors, collected in patent US20070041998A1, “Use of alum and a th1 immune response inducing adjuvant for enhancing immune responses” (Intercell AG, priority 2003, published 2007).
# Where no end group is shown, it is not given here.
# Assays:
# Staphylococcus aureus = details: Staphylococcus aureus-infected mice
# human neutrophils = details: via cell surface calreticulin
substance,measurement,setting,value
KLKLLLLLKLK-NH2 [synthetic antimicrobial peptide (Nakajima 1997; Cho 1999)],chemotherapeutic activity,Staphylococcus aureus,significant chemotherapeutic activity
same,production of superoxide anion (O2−),human neutrophils,activated to produce the superoxide anion
